Bridge positions count the residues as written; N and C are the ends. Square brackets hold non-standard residues; d marks the D form. Peptide text beside a SMILES is read from it. 1Nal = N[C@@H](Cc1cccc2ccccc12)C(=O)O
Columns and labels:
human Kv1.3 (CHO) = target: T1, human Kv1.3 (CHO) (Homo sapiens, UniProt P22001); assay: cell-based
T1 construct: expressed in transfected cells; host or cells: CHO

human Kv1.1 (HEK293) = target: T2, human Kv1.1 (HEK293) (Homo sapiens, UniProt Q09470); assay: cell-based
T2 construct: expressed in transfected cells; host or cells: HEK293
T2 sequence (Q09470 whole entry): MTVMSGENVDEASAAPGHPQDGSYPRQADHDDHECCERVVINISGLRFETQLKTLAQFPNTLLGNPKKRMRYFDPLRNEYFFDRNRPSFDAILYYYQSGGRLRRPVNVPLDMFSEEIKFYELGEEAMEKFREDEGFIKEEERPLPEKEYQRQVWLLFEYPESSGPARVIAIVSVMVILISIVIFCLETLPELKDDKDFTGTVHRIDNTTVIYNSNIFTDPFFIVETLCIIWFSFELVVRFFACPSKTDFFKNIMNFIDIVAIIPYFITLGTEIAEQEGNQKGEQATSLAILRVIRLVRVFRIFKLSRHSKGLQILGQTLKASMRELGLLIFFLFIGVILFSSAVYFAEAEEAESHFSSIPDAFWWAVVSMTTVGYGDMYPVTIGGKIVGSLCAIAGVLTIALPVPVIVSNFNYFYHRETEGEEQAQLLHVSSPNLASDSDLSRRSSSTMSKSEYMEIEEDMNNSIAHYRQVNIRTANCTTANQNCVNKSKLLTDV

T1 sequence (P22001 whole entry): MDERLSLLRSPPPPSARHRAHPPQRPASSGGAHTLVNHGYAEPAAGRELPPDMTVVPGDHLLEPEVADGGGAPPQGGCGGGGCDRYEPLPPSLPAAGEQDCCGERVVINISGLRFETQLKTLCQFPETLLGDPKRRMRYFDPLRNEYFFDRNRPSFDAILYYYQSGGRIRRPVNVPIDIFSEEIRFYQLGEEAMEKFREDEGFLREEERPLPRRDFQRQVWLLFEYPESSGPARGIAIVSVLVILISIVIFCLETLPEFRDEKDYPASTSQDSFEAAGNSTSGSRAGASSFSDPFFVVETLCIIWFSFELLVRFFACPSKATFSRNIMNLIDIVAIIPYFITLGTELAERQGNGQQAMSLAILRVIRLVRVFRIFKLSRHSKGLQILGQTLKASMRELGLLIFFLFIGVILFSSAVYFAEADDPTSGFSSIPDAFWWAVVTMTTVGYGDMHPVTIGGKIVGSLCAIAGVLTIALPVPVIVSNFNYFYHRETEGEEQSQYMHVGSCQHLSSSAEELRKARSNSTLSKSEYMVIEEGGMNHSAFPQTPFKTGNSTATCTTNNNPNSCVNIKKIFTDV

SMILES	IC50 (human Kv1.3 (CHO))	IC50 (human Kv1.1 (HEK293))
CC[C@H](C)[C@@H]1NC(=O)[C@H](CCCCN)NC(=O)[C@@H](NC(=O)[C@H](CCCCN)NC(=O)[C@@H](NC(=O)[C@H](CC(N)=O)NC(=O)[C@@H](NC(=O)[C@H](CCCNC(=N)N)NC(=O)[C@@H](NC(=O)CN)C(C)C)[C@@H](C)CC)C(C)C)CSSC[C@@H]2NC(=O)[C@H](CCCCN)NC(=O)CNC(=O)[C@H](Cc3ccccc3)NC(=O)[C@H](CCCNC(=N)N)NC(=O)[C@H](CCSC)NC(=O)CNC(=O)[C@H](C)NC(=O)[C@H](CCCCN)NC(=O)[C@H](CCCCN)NC(=O)[C@@H]3CSSC[C@@H](C(=O)N[C@H](C(=O)N4CCC[C@H]4C(=O)N[C@@H](CCCCN)C(=O)O)[C@@H](C)O)NC(=O)[C@H](Cc4c[nH]cn4)NC(=O)[C@H](CSSC[C@H](NC(=O)[C@H](CCC(N)=O)NC(=O)[C@H](CCCNC(=N)N)NC(=O)[C@H](CO)NC1=O)C(=O)N[C@@H](CC(C)C)C(=O)N[C@@H](CCC(=O)O)C(=O)N1CCC[C@H]1C(=O)N3)NC(=O)[C@H](CCCCN)NC(=O)CNC(=O)[C@H](CC(N)=O)NC(=O)[C@H](CCSC)NC2=O [I3R] (H-GVRINVKCKISRQCLEPCKKAGMRFGKCMNGKCHCTPK-OH; disulfide 8-28, 14-33, 18-35)	0.0199 nM	0.00247 nM
CC[C@H](C)[C@@H]1NC(=O)[C@H](CCCCN)NC(=O)[C@@H](NC(=O)[C@H](CCCCN)NC(=O)[C@@H](NC(=O)[C@H](CC(N)=O)NC(=O)[C@H](C)NC(=O)[C@@H](NC(=O)[C@@H](NC(=O)CN)C(C)C)[C@@H](C)CC)C(C)C)CSSC[C@@H]2NC(=O)[C@H](CCCCN)NC(=O)CNC(=O)[C@H](Cc3ccccc3)NC(=O)[C@H](CCCNC(=N)N)NC(=O)[C@H](CCSC)NC(=O)CNC(=O)[C@H](C)NC(=O)[C@H](CCCCN)NC(=O)[C@H](CCCCN)NC(=O)[C@@H]3CSSC[C@@H](C(=O)N[C@H](C(=O)N4CCC[C@H]4C(=O)N[C@@H](CCCCN)C(=O)O)[C@@H](C)O)NC(=O)[C@H](Cc4c[nH]cn4)NC(=O)[C@H](CSSC[C@H](NC(=O)[C@H](CCC(N)=O)NC(=O)[C@H](CCCNC(=N)N)NC(=O)[C@H](CO)NC1=O)C(=O)N[C@@H](CC(C)C)C(=O)N[C@@H](CCC(=O)O)C(=O)N1CCC[C@H]1C(=O)N3)NC(=O)[C@H](CCCCN)NC(=O)CNC(=O)[C@H](CC(N)=O)NC(=O)[C@H](CCSC)NC2=O [I4A] (H-GVIANVKCKISRQCLEPCKKAGMRFGKCMNGKCHCTPK-OH; disulfide 8-28, 14-33, 18-35)	0.195 nM	0.0169 nM
CC[C@H](C)[C@@H]1NC(=O)[C@H](CCCCN)NC(=O)[C@@H](NC(=O)[C@H](CCCCN)NC(=O)[C@@H](NC(=O)[C@H](CC(N)=O)NC(=O)[C@H](CCC(=O)O)NC(=O)[C@@H](NC(=O)[C@@H](NC(=O)CN)C(C)C)[C@@H](C)CC)C(C)C)CSSC[C@@H]2NC(=O)[C@H](CCCCN)NC(=O)CNC(=O)[C@H](Cc3ccccc3)NC(=O)[C@H](CCCNC(=N)N)NC(=O)[C@H](CCSC)NC(=O)CNC(=O)[C@H](C)NC(=O)[C@H](CCCCN)NC(=O)[C@H](CCCCN)NC(=O)[C@@H]3CSSC[C@@H](C(=O)N[C@H](C(=O)N4CCC[C@H]4C(=O)N[C@@H](CCCCN)C(=O)O)[C@@H](C)O)NC(=O)[C@H](Cc4c[nH]cn4)NC(=O)[C@H](CSSC[C@H](NC(=O)[C@H](CCC(N)=O)NC(=O)[C@H](CCCNC(=N)N)NC(=O)[C@H](CO)NC1=O)C(=O)N[C@@H](CC(C)C)C(=O)N[C@@H](CCC(=O)O)C(=O)N1CCC[C@H]1C(=O)N3)NC(=O)[C@H](CCCCN)NC(=O)CNC(=O)[C@H](CC(N)=O)NC(=O)[C@H](CCSC)NC2=O [I4E] (H-GVIENVKCKISRQCLEPCKKAGMRFGKCMNGKCHCTPK-OH; disulfide 8-28, 14-33, 18-35)	0.0157 nM	0.00319 nM
CC[C@H](C)[C@@H]1NC(=O)[C@H](CCCCN)NC(=O)[C@@H](NC(=O)[C@H](CCCCN)NC(=O)[C@@H](NC(=O)[C@H](CC(N)=O)NC(=O)[C@H](Cc2cccc3ccccc23)NC(=O)[C@@H](NC(=O)[C@@H](NC(=O)CN)C(C)C)[C@@H](C)CC)C(C)C)CSSC[C@@H]2NC(=O)[C@H](CCCCN)NC(=O)CNC(=O)[C@H](Cc3ccccc3)NC(=O)[C@H](CCCNC(=N)N)NC(=O)[C@H](CCSC)NC(=O)CNC(=O)[C@H](C)NC(=O)[C@H](CCCCN)NC(=O)[C@H](CCCCN)NC(=O)[C@@H]3CSSC[C@@H](C(=O)N[C@H](C(=O)N4CCC[C@H]4C(=O)N[C@@H](CCCCN)C(=O)O)[C@@H](C)O)NC(=O)[C@H](Cc4c[nH]cn4)NC(=O)[C@H](CSSC[C@H](NC(=O)[C@H](CCC(N)=O)NC(=O)[C@H](CCCNC(=N)N)NC(=O)[C@H](CO)NC1=O)C(=O)N[C@@H](CC(C)C)C(=O)N[C@@H](CCC(=O)O)C(=O)N1CCC[C@H]1C(=O)N3)NC(=O)[C@H](CCCCN)NC(=O)CNC(=O)[C@H](CC(N)=O)NC(=O)[C@H](CCSC)NC2=O [I4Nal] (H-GVI[1Nal]NVKCKISRQCLEPCKKAGMRFGKCMNGKCHCTPK-OH; disulfide 8-28, 14-33, 18-35)	0.015 nM	< 0.00152 nM
CC[C@H](C)[C@@H]1NC(=O)[C@H](CCCCN)NC(=O)[C@@H](NC(=O)[C@H](CCCCN)NC(=O)[C@@H](NC(=O)[C@H](CC(N)=O)NC(=O)[C@H](CCCNC(=N)N)NC(=O)[C@@H](NC(=O)[C@@H](NC(=O)CN)C(C)C)[C@@H](C)CC)C(C)C)CSSC[C@@H]2NC(=O)[C@H](CCCCN)NC(=O)CNC(=O)[C@H](Cc3ccccc3)NC(=O)[C@H](CCCNC(=N)N)NC(=O)[C@H](CCSC)NC(=O)CNC(=O)[C@H](C)NC(=O)[C@H](CCCCN)NC(=O)[C@H](CCCCN)NC(=O)[C@@H]3CSSC[C@@H](C(=O)N[C@H](C(=O)N4CCC[C@H]4C(=O)N[C@@H](CCCCN)C(=O)O)[C@@H](C)O)NC(=O)[C@H](Cc4c[nH]cn4)NC(=O)[C@H](CSSC[C@H](NC(=O)[C@H](CCC(N)=O)NC(=O)[C@H](CCCNC(=N)N)NC(=O)[C@H](CO)NC1=O)C(=O)N[C@@H](CC(C)C)C(=O)N[C@@H](CCC(=O)O)C(=O)N1CCC[C@H]1C(=O)N3)NC(=O)[C@H](CCCCN)NC(=O)CNC(=O)[C@H](CC(N)=O)NC(=O)[C@H](CCSC)NC2=O [I4R] (H-GVIRNVKCKISRQCLEPCKKAGMRFGKCMNGKCHCTPK-OH; disulfide 8-28, 14-33, 18-35)	0.0104 nM	0.00192 nM
CC[C@H](C)[C@H](NC(=O)[C@@H](NC(=O)CN)C(C)C)C(=O)N[C@H](C(=O)N[C@@H](CC(N)=O)C(=O)N[C@H](C(=O)N[C@@H](CCCCN)C(=O)N[C@H]1CSSC[C@@H]2NC(=O)[C@H](CCCCN)NC(=O)CNC(=O)[C@H](Cc3ccccc3)NC(=O)[C@H](CCCNC(=N)N)NC(=O)[C@H](CCSC)NC(=O)CNC(=O)[C@H](C)NC(=O)[C@H](CCCCN)NC(=O)[C@H](CCCCN)NC(=O)[C@@H]3CSSC[C@@H](C(=O)N[C@H](C(=O)N4CCC[C@H]4C(=O)N[C@@H](CCCCN)C(=O)O)[C@@H](C)O)NC(=O)[C@H](Cc4c[nH]cn4)NC(=O)[C@H](CSSC[C@H](NC(=O)[C@H](CCC(N)=O)NC(=O)[C@H](CCCNC(=N)N)NC(=O)[C@H](CO)NC(=O)[C@H](C)NC(=O)[C@H](CCCCN)NC1=O)C(=O)N[C@@H](CC(C)C)C(=O)N[C@@H](CCC(=O)O)C(=O)N1CCC[C@H]1C(=O)N3)NC(=O)[C@H](CCCCN)NC(=O)CNC(=O)[C@H](CC(N)=O)NC(=O)[C@H](CCSC)NC2=O)C(C)C)[C@@H](C)CC [I10A] (H-GVIINVKCKASRQCLEPCKKAGMRFGKCMNGKCHCTPK-OH; disulfide 8-28, 14-33, 18-35)	0.0912 nM	0.00446 nM
